# Measurements from US5260275A, “Hypoglycemics” (Amylin Pharmaceuticals, Inc., priority 1990, dated 1993).
# No end group written: not given here.
# Legend:
# [1] = test system: amylin inhibition of insulin-stimulated muscle glycogen synthesis; assay: Antagonist assay in isolated rat soleus muscle (radiolabelled glucose into glycogen, Example 6); format: cell-based; conditions: 1000 μU/mL insulin
# Procedure: An antagonist assay was performed in vitro using the isolated soleus muscle from rats. It measured the rate of incorporation of radiolabelled glucose into muscle glycogen as follows: […] There were therefore 9 treatment groups (conditions 1,2,3 and six subgroups of condition 4). The right and left soleus muscles of 4-hour fasted rats were removed immediately after decapitation of the animals, divided in half and temporarily placed in physiological saline. Muscles were assigned to different treatment groups so that the 4 muscle pieces from each animal were evenly distributed among the 9 flasks representing the different assay conditions. […] Pharmacologically active agents were added to the 10mL of medium to result in the above stated concentrations and mixtures. […] Frozen muscle specimens were digested in 1 mL 60% potassium hydroxide at 70° C. for 45 minutes. […] The supernatant was aspirated and the glycogen washed with ethanol, aspirated and dried under vacuum. The remaining glycogen was redissolved in water and scintillation fluid and counted for ^14 C. From a knowledge of the specific activity of ^14 C-glucose in the 5.5 mM glucose of the incubation medium, and the total ^14 C counts remaining in the glycogen extracted from each muscle, the net rate of glycogen synthesis over the final 60 minute incubation period was determined. This was normalized per mass of muscle and expressed as μmoles of glucosyl units incorporated into glycogen per hour per gram of muscle. The antagonist dose/response curve was fitted to a 4-parameter logistic model using a least-squares iterative routine (ALLFIT, v2.7, NIH, MD) to derive the EC50 for disinhibition.
# HIT T-15 cells [2] = assay: Insulin release from HIT T-15 cells; format: cell-based, hamster
# Procedure: (§1) HIT T-15 cells (HIT cells; American Type Tissue Collection, Rockville, MD; R. F. Santerre, et al. (1981) Proc. Nat. Acad. Sci. USA 78, 4339-4343.) were subcultured weekly in Ham's F-12 medium (Irvine Scientific, Santa Ana, Calif.) containing 10% horse serum (Gemini Bioproducts, Calabasas, Calif.), 2.5% fetal bovine serum (FBS; Gemini), 2 mM L-glutamine, and 10.0 mM glucose. Cells were maintained at 37° C. and 5% CO2 / 95% humidified air and medium was replaced every 2 to 3 days. All experiments were performed with cells from passages 66 to 71.
# (§2) Amylin and insulin secretion were measured using reagents of analytical grade unless otherwise indicated. The secretion medium was a Krebs-Ringer buffer (KRB) containing 119 mM NaCl, 4.74 mM KCl, 2,54 mM CaCl2, 1.19 mM MgSO4, 1.19 mM KH2 PO4, 25 mM NaHCO3, 10 mM HEPES and 0.1% protease-free bovine serum albumin (Cohn fraction V; Sigma Chemical Co., St. Louis Mo.) at pH 7.4. Glibenclamide (Sigma) was initially dissolved in ethanol (50 mg/ml) then diluted to working concentrations in KRB. […] Tolbutamide (Sigma) was initially dissolved in dimethylsulfoxide (50 mg/ml). […] Metformin (Sigma) was diluted in KRB.
# (§3) Five days before each secretion study cells were subcultured at 0.26×10^6 cells/0.8 ml medium/well in 24-well tissue culture plates (Corning Glass Works, Corning N.Y.). Medium was replaced on day 3. On day 5 cells were washed twice with 1.0 ml KRB then incubated in 1.0 ml KRB (30 minutes, 37° C.) in equilibrium with air. Cells were washed twice more prior to addition of 0.5 ml KRB containing the indicated concentrations of glucose, metformin, tolbutamide and glibenclamide. After a 60 minute incubation with test substance or substances, supernatants were centrifuged (5 minutes, 500×g, 5° C.; GPKR centrifuge, Beckman Instruments, Inc., Palo Alto, Calif.) to remove cell debris, then stored in polypropylene micro test tubes (Brinkman Instrument Co., Westbury, N.Y.) at -20° C. until analyzed by radioimmunoassay. Supernatants were analyzed for insulin and amylin content within one week of collection. Three wells per plate were randomly selected for cell quantitation. Cells were incubated with 75 μg trypsin and 30 μg EDTA in 150 μl normal saline (8 minutes, 37° C.), then counted on a Coulter Counter (Model Zf, Coulter Electronics, Hialeah, Fla.).
# (§4) Immunoreactive insulin content in supernatants was measured using a commercial radioimmunoassay (IM.78; Amersham, Arlington Heights, Ill.). […] The radioimmunoassay for immunoreactive amylin was as follows. Assay diluent was phosphate-buffered saline (PBS; 137 mM NaCl, 2.68 mM KCl, 1.47 mM KH2 PO4, 6.65 mM Na2 HPO4) containing 0.1% Triton-X 100 (v/v), 0.01% NaN3 (w/v), and 0.1% gelatin (v/v; teleostean, 45% aqueous solution, Sigma) at pH 7.4. All incubations were performed at 4° C. ^125 I-[Tyr 37]-human synthetic amylin tracer was iodinated by the chloramine-T method and purified on a C18 Sep-Pak (Waters Associates, Milford, Mass.). Specific activity was approximately 500 μCi/μg.
# Data in FIGS. 3 and 4 are shown as the mean±S.D. of 4 replicate samples. An unpaired Student's t-test was used to compare secretion in the absence and presence of hypoglycemic agent (Statview 512+ program; Brain Power, Inc., Calabasas, Calif.).
# as §1, with “Md.)” for “MD; R. F. Santerre, et al. (1981) Proc. Nat. Acad. Sci. USA 78, 4339-4343.)”, “L-glutamine, 10^5 IU penicillin G/1, 100 mg streptomycin/1” for “L-glutamine,”, “C02/” for “CO2 /”, “62” for “66”
# HIT T-15 cells [3] = assay: Amylin release from HIT T-15 cells; format: cell-based, hamster; conditions: for Effect on basal and glucose-stimulated amylin secretion (in words): same concentrations that stimulate insulin secretion (tolbutamide 100 μM; glibenclamide 0.1 and 1.0 μM), 0 and 10 mM glucose
# Procedure: as §1, §2, §3, §4
# Standards and unknowns were run in triplicate or duplicate respectively. After an 18 hour incubation, 100 μl of tracer containing 20,000 dpm was added and samples were incubated an additional 18 hours. To ensure complete immunoprecipitation of amylin:antibody complexes, 100 μl of rabbit gamma globulin (0.35 mg/ml, Scantibodies Laboratory, Santee, Calif.) and 100 μl of goat anti-rabbit gamma globulin (0.50 mg/ml, purified grade; Scantibodies) were added. After a 15 minute incubation, 1.0 ml 2% polyethylene glycol (w/v. MW 8,000; Sigma) in assay buffer was added and samples were centrifuged (30 minutes, 1500×g, 5° C.). Samples were decanted and pellets were counted on a gamma counter (model 1277; LKB Wallac, Turku, Finland).
# Data in FIGS. 3 and 4 are shown as the mean±S.D. of 4 replicate samples.
# [4] = test system: isolated rat islets of Langerhans; assay: Glucose-stimulated insulin secretion from isolated rat islets of Langerhans; format: cell-based; conditions: glucose 10 mmol/L
# Procedure: The following experiments illustrate the fact that subpeptides of amylin can act to reduce the amount of insulin produced by isolated islets of Langerhans in response to a standard glucose challenge. Similar results have been obtained using whole amylin. All experiments were performed by known methods used in experimental practice. See, e.g., Lacey P. E., and Kostianovsky M., Method for the Isolation of Intact Islets of Lanaerhans from the Rat Pancreas. Diabetes 1967; 16:35-39.
# Briefly, rats were killed, and islets of Langerhans were isolated from their pancreases. Experiments were performed either with freshly isolated islets or after overnight incubation of islets (23 h) in standard culture medium and conditions at 37° C. Synthetic amylin peptide 27-37 or synthetic calcitonin gene related peptide (CGRP) was dissolved in a 1.0 mmol/L citric acid/sodium citrate buffer, pH 3.0, and the concentration of the amylin 27-37 was verified by quantitative amino acid analysis. See, e.g., Cooper G. J. S. et al., Proc Natl Acad Sci USA 1987; 84:8628-8632. […] Stimulation of islets was carried out at the standard stimulatory glucose concentration of 10 mmol/L.
# Production of insulin is expressed as μU/islet/h. All experiments were performed with five replicates per point. The integrity of the islet response was assessed by comparing the responses after stimulation of different aliquots of islets by two and ten mmol/L glucose, respectively, and the strength of the inhibitory response was judged against that induced by 1 μg/ml (650 nmol/L) somatostatin. Somatostatin is a 14 amino acid peptide which is a known, potent inhibitor of the insulin secretory response of islet B-cells to glucose. Arimura A. Biomed res1981; 2:233-257. […] Petterson M., Ahren B., Bottcher G., Sundler F., Endocrinology 1986; 119:865-869.
# The results are shown in TABLE 5 below and all results are expressed as standard error of the mean (s.e.m.). The significance of differences between the means of groups is assessed by the t-test. The result of stimulation by 10 mmol/L glucose is compared with the results of stimulation at 2 mmol/L glucose. In all other experimental conditions, the significance of the inhibitory effect is measured against the effect of 10 mmol/L glucose alone.
# [5] = Intravenous amylin bolus in normal rats; format: in vivo, rat
# Procedure: We have also shown that amylin acutely produces diabetes (fasting hyperglycemia greater than 140 mg/dL) when administered intravenously. Eight normal rats were injected with a 100 μg bolus of amylin (rat amylin, Bachem, Torrance, Calif.). An intravenous amylin bolus produced a profound hyperglycemia to diabetic levels within 15-30 minutes (usually around 200 mg/dL). This hyperglycemia persists for several hours. […] There is an increase in respiratory quotient (RQ) after amylin only when somatostatin is absent and insulin is allowed to increase in response to hyperglycemia. During somatostatin infusion (no endogenous insulin release), there is no change in RQ, indicating no change from lipid to carbohydrate fuel usage in response to amylin in the fasted animal.
# [6] = 100 μg intravenous bolus, normal rats
compound,measurement,setting,value
"insulin: Humulin-R, 100U/mL, recombinant human insulin (Eli Lilly)",Increase in rate of glycogen synthesis,"[1]; zero amylin, zero antagonist",3.7 fold
CCCCNC(=O)NS(=O)(=O)c1ccc(C)cc1 [tolbutamide],Effect on basal and glucose-stimulated secretion of insulin (in words),"HIT T-15 cells [2]; 100 μM, 0 and 10 mM glucose, 60 min",significantly enhanced
same,Effect on basal and glucose-stimulated amylin secretion (in words),HIT T-15 cells [3],significantly increase
COc1ccc(Cl)cc1C(=O)NCCc1ccc(S(=O)(=O)NC(=O)NC2CCCCC2)cc1 [glibenclamide],Proportional increase of basal insulin release,HIT T-15 cells [2]; 0 glucose,more than two-fold
same,Effect on basal and glucose-stimulated secretion of insulin (in words),"HIT T-15 cells [2]; 0.1 and 1.0 μM, 0 and 10 mM glucose, 60 min",significantly enhanced
same,Proportional increase in basal amylin secretion,HIT T-15 cells [3]; basal conditions (0 glucose),approximately two-fold
same,Effect on basal and glucose-stimulated amylin secretion (in words),HIT T-15 cells [3],significantly increase
CN(C)C(=N)N=C(N)N [metformin],Effect on insulin secretion (in words),"HIT T-15 cells [2]; 10 and 100 μM, 0 and 10 mM glucose, 60 min",no measurable effect
same,Effect on rates of amylin secretion (in words),"HIT T-15 cells [3]; islet β-cells (HIT), concentration range examined",does not influence
"CGRP 27-37: subpeptide 27-37 of calcitonin gene related peptide (FVPTNVGSKAF; ends and bridges not checked; UniProt P06881 109-119, looked up, fragment)",Insulin production,[4]; substance 10 nmol/L,36 μU/islet/hr
same,Relative insulin secretion inhibition (percentage by which insulin production is reduced from control),[4]; substance 10 nmol/L,55%
same,Insulin production,[4]; substance 100 nmol/L,36 μU/islet/hr
same,Relative insulin secretion inhibition (percentage by which insulin production is reduced from control),[4]; substance 100 nmol/L,55%
same,Insulin production,[4]; substance 1000 nmol/L,46 μU/islet/hr
same,Relative insulin secretion inhibition (percentage by which insulin production is reduced from control),[4]; substance 1000 nmol/L,42%
"rat amylin: rat amylin, Bachem, Torrance, Calif. (KCNTATCATQRLANFLVRSSNNLGPVLPPTNVGSNTY; ends and bridges not checked; cysteine pairing not given here; UniProt P12969 38-74, looked up)",Duration of hyperglycemia,[5]; [6],several hours
same,Hepatic (endogenous) glucose output,[5]; [6],increase
same,Hyperglycemia level after bolus,[5]; [6],around 200 mg/dL
same,Peripheral glucose disposal,[5]; [6],increased impediment
same,Plasma lactate,[5]; [6],transient increase
same,Time to hyperglycemia at diabetic levels,[5]; [6],15 to 30 min
same,Respiratory quotient (RQ),[5]; during somatostatin infusion (no endogenous insulin release),no change
same,Respiratory quotient (RQ),"[5]; somatostatin absent, insulin allowed to increase",increase
same,Decrease of insulin-stimulated rate of glycogen synthesis,[1]; 20 nM amylin,approximately 83%
"CGRP8-37: 8-37 human CGRP (Bachem), amylin antagonist",Effect on amylin inhibition of insulin-stimulated muscle glycogen synthesis (in words),[1]; 20 nM amylin,partly reverses
same,"Increment in the rate of glycogen synthesis, maximum reached","[1]; 20 nM amylin, antagonist 1 nM-10 μM",about 115 % of basal
same,EC50,"[1]; 20 nM amylin, read-out: EC50 for disinhibition (half maximal concentration)",1.2 nM
